ChEMBL document CHEMBL3102745, “Inhibition of CK2: An Attractive Therapeutic Target for Cancer Treatment” (ACS Med Chem Lett, 2013)

Assays:
[1] = biological target: Casein kinase II subunit alpha (Homo sapiens) (UniProt P68400); test: Inhibition of N-terminal 6 X His-tagged recombinant human full length Casein Kinase 2 alpha subunit expressed in Sf21 insect cells using BODIPY-FL-RRRDDDSDDD-CONH2 as substrate preincubated for 20 mins measured after 90 mins by fluorescence-based assay
HCT-116 = test: Antiproliferative activity against human HCT116 cells after 72 hrs by Alamar blue assay; format: functional; details: HCT-116, 72 h

Sequence of Casein kinase II subunit alpha (Homo sapiens) (P68400 whole entry, looked up): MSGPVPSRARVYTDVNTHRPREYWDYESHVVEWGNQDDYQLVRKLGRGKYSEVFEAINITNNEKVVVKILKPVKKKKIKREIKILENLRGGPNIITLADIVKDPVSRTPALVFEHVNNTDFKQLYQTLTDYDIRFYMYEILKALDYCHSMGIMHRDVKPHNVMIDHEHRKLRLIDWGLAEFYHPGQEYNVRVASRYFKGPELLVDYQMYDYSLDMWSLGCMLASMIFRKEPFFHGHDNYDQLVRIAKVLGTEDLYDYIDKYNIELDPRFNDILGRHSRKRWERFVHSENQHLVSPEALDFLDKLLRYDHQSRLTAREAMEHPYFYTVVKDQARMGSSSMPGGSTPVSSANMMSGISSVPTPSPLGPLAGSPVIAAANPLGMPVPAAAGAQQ

CC(=O)Nc1cc(Nc2cc(NC3CC3)n3ncc(C#N)c3n2)ccc1N(C)CCN(C)C
IC50 [1]: < 4000 nM
GI50 (HCT-116): 30 nM

CC(=O)Nc1cc(Nc2cc(NC3CC3)n3ncc(C#N)c3n2)ccc1N(C)CCN
GI50 (HCT-116): 9 nM
